Measured values taken from patent US10052381B2, “Classifiers of NF-κB pathway activation, devices, and methods of use thereof” (Emory University, priority 2012, dated 2018).

Assays:
Format in all cases: cell-based
[1] = test system: p100 gene classifier (noncanonical NF-κB pathway); assay: nCounter gene expression of the p100 classifier in DLBCL cell lines after drug treatment
Method: (§1) FIG. 5A illustrates that rituximab increases the apoptotic effect of doxorubicin when it is associated with suppression of p105 and induction of p100 classifier gene expression. Boxplot of p100 and p105 gene list illustrating the changes in gene expression in cells treated with doxorubicin ([…]) or rituximab ([…]). Cells were treated for 24 hours and the percent of live cells was measured using an ImageXpress 5000A Automated Acquisition and Analysis System (Molecular Devices), quantitating for Yo-pro-1 or PI-negative cells.
(§2) Given the capacity of the p105 classifier to predict a better response to RCHOP, the extent to which both classifiers were targeted by rituximab was investigated. In this investigation, the pathway dysregulation in a series of DLBCL cell lines and their changes in gene expression produced by DNA damaging agent (doxorubicin) and rituximab was measured. Based on their known baseline pattern of NF-κB activation, cell lines with enhanced (OCI-LY3, OCI-LY10) and suppressed (OCI-LY19 and OCI-LY2) NF-κB activation were selected for further testing (FIG. 5A).
(§3) nCounter Analysis System technology was developed by NanoString Technologies. In brief, nCounter™ assay was performed using 100 ng of total RNA or 2 μL of tissue lysate per replicate. The nCounter CodeSet for these studies contained probe pairs for 47 test and 3 control genes. All 47 genes and controls (n=3) were assayed simultaneously in multiplexed reactions. […] Subsequently, supervised complete linkage agglomerative hierarchical clustering analysis was performed.

[2] = test system: p105 gene classifier (canonical NF-κB pathway); assay: nCounter gene expression of the p105 classifier in DLBCL cell lines after drug treatment
Method: as §1, §2, §3

[3] = test system: DLBCL cell lines OCI-LY3, OCI-LY10, OCI-LY19 and OCI-LY2; assay: Apoptosis studies (Yo-pro-1 / PI negative live cells, ImageXpress); settings: rituximab alone, titrating doses, 24 hours; all four cell lines
Method: To assess the consequence of rituximab's functional effects, the degree of apoptosis produced after treating all four cell lines with titrating doses of doxorubicin and rituximab was measured.
For apoptosis studies, 10^4 cells were treated with titrating doses of doxorubicin (titrating doses: […], Sigma) or rituximab (titrating doses: 1.5, 2.5, 5, 10 and 20 mg/mL, Biogen Idec Inc). Twenty four hours later cells were stained with Yo-pro-1 iodide and propidium Iodide (PI, both from Invitrogen). Live cells were measured using an ImageXpress 5000A Automated Acquisition and Analysis System (Molecular Devices), quantitating for Yo-pro-1 iodide and PI negative cells.

[4] = rituximab with doxorubicin, NF-κB activated cell lines (OCI-LY3, OCI-LY10)
[5] = doxorubicin alone, OCI-LY3, OCI-LY10 cells

rituximab
change in expression of p100 classifier ([1]; OCI-LY2 and OCI-LY19 cells): minimally changed | effect on doxorubicin's induction of p100 gene classifier [1, 4]: enhanced the induction | change in expression of p105 classifier ([2]; OCI-LY2 and OCI-LY19 cells): minimally changed | effect on doxorubicin's induction of p105 gene classifier [2, 4]: suppressed doxorubicin's induction | degree of apoptosis [3]: did not induce significant apoptosis beyond background levels

COc1cccc2c1C(=O)c1c(O)c3c(c(O)c1C2=O)C[C@@](O)(C(=O)CO)C[C@@H]3O[C@H]1C[C@H](N)[C@H](O)[C@H](C)O1 [doxorubicin]
gene expression of p100 target genes [1, 5]: moderately induced | gene expression of p105 target genes [2, 5]: moderately induced
